Results on 2 compounds are retold here after US20230414826A1, “FIBRIN HYDROGELS” (Mayo Foundation for Medical Education and Research, priority 2020, published 2023).

The target of the assay is T1, fibrin gels (40 mg/mL fibrinogen, 33 U/mL thrombin) (Homo sapiens, UniProt P02671+P02675+P02679).
T1 construct: purchased Ethicon (Evicel)
T1 sequence (P02671 20-644 isoform P02671-2 limits assumed): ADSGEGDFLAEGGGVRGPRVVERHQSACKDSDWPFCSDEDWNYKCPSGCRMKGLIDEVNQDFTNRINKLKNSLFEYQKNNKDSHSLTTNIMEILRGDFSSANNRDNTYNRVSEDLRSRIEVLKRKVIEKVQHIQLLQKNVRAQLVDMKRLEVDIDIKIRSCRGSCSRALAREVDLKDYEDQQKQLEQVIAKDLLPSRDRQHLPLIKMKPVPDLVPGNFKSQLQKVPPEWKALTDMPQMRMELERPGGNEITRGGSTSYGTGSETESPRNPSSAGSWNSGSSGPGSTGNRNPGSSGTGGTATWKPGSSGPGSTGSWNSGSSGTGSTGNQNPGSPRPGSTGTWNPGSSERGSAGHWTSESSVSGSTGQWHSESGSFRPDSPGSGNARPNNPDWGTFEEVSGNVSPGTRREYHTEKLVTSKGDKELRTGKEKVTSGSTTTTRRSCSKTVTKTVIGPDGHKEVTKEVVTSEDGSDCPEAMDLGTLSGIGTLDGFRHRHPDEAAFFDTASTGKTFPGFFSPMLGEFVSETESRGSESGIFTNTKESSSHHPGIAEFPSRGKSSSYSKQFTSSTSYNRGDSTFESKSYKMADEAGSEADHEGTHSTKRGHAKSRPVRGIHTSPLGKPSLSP
T1 sequence (P02675 45-491 limits assumed): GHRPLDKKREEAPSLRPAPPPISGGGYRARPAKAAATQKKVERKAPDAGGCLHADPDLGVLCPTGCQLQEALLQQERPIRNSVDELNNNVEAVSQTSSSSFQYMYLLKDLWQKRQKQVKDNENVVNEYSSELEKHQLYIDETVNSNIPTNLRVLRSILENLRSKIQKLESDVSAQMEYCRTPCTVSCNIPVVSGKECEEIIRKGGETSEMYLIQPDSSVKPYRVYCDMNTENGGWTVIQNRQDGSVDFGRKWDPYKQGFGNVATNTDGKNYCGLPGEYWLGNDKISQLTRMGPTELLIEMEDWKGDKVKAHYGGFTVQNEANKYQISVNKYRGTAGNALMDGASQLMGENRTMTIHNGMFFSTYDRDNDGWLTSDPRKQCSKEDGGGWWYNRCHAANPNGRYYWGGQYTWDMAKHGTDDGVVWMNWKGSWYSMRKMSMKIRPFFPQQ
T1 sequence (P02679 27-437 isoform P02679-2 limits assumed): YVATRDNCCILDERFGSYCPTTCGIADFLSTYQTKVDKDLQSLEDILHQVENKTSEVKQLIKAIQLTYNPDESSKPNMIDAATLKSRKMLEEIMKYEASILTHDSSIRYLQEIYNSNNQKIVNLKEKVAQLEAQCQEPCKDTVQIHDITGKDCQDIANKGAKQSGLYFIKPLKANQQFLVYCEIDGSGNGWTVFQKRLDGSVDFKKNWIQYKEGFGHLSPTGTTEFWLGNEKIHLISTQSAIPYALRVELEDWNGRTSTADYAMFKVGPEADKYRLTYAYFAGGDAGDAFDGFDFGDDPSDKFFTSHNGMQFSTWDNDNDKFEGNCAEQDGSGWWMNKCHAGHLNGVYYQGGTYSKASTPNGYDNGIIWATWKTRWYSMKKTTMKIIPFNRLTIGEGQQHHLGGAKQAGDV
Nature of the assay: Biexponential modeling of shear modulus (g′) versus time data. The note with it: biexponential model; for time shift parameter (xc): 0.12% dye, n=3; for G′1: fast rate associated parameter; for G′1 / r1 / G′2 / r2 / xc: avg ± sd, n = 3; for r1: fast rate constant; for G′2: slow rate associated parameter; for r2: slow rate constant; for xc: time shift parameter. As to the method: Modeling was performed using the shear modulus (g′) versus time data for each time sweep performed with gels with a final concentration of 40 mg/mL fibrinogen, 33 U/mL thrombin, and 0.12% dye. A biexponential model was used as described elsewhere (see, e.g., Wedgwood et al., Macromolecular Symposia, 334:117-25 (2013); and Moreno-Arotzena et al., Materials (Basel), 8:1636-51 (2015)). The following equation was used: […]
This equation model assumes a fast (1) and slow (2) kinetic rate. As such G′1 and G′2 are the respective rate associated parameters, r1 and r2 are the respective rates constants, and Xc is a time shift parameter. Modeling was performed using MATLAB (Mathworks; Natick, MA), using the model fit function. Parameters were defined with r1>r2 and xc as positive. Each sample run was best fitted to the model to generate an r^2>0.98.
Previous work has fitted fibrin gelation kinetics to a biexponential model (see, e.g., Moreno-Arotzena et al., Materials (Basel), 8:1636-51 (2015)). In this model, gelation, as measured by the shear modulus over time, consists of a fast and slow reaction rate. Each time sweep series was fitted to the biexponential model to determine the fast (1) and slow (2) associated parameters, reaction rates and time shift parameter (Table 2 and FIG. 9). The time shift parameters (xc) for the PBS, TB, EB, and PEG groups were 19.7±7.2, 62.9±9.7, 110.6±7.6, and 20.3±5.0 sec (n=3, p<0.001) (FIG. 9A). […] This re-affirms the shifted delay in gelation onset for TB and EB groups and confirms that the effect is not due to changes in molality. To understand if there is a change in reaction rates, the ratio of the fast to slow reaction rate was compared. The ratios, r1/r2, for PBS, TB, EB and PEG groups were […] (n=3, p=0.057) (FIG. 9B).

On to `Cc1cc(-c2ccc(/N=N/c3ccc4c(S(=O)(=O)O)cc(S(=O)(=O)O)c(N)c4c3O)c(C)c2)ccc1/N=N/c1ccc2c(S(=O)(=O)O)cc(S(=O)(=O)O)c(N)c2c1O` [EB, Evans Blue], for which the “time shift parameter (xc)” value stood at 110.6 ± 7.6 s, the “G′1” value was 927 ± 395, the r1 was 3720 ± 732 and the “G′2” value came out at 787 ± 210. In addition, the r2 came out at 739 ± 205 and the xc is 111 ± 8.
For the compound `Cc1cc(-c2ccc(/N=N/c3c(S(=O)(=O)O)cc4cc(S(=O)(=O)O)cc(N)c4c3O)c(C)c2)ccc1/N=N/c1c(S(=O)(=O)O)cc2cc(S(=O)(=O)O)cc(N)c2c1O` [TB, Trypan Blue], the “time shift parameter (xc)” value was 62.9 ± 9.7 s, the “G′1” value is given as 1555 ± 92, the r1 is on record as 2679 ± 366 and the “G′2” value is recorded as 800 ± 186. In addition, the r2 was 455 ± 131 and the xc came out at 63 ± 10.
